Test results: ChEMBL document CHEMBL5465560, “Selectivity Literature for EUbOPEN Chemogenomic Library” (2024)

How the values were obtained:
[1] = biological target: T1, Tyrosine-protein kinase JAK3 (Homo sapiens) (UniProt P52333); experiment: Selectivity interaction (KinomeScan (DiscoverX)) EUB0000045b JAK3
T1 sequence (whole entry): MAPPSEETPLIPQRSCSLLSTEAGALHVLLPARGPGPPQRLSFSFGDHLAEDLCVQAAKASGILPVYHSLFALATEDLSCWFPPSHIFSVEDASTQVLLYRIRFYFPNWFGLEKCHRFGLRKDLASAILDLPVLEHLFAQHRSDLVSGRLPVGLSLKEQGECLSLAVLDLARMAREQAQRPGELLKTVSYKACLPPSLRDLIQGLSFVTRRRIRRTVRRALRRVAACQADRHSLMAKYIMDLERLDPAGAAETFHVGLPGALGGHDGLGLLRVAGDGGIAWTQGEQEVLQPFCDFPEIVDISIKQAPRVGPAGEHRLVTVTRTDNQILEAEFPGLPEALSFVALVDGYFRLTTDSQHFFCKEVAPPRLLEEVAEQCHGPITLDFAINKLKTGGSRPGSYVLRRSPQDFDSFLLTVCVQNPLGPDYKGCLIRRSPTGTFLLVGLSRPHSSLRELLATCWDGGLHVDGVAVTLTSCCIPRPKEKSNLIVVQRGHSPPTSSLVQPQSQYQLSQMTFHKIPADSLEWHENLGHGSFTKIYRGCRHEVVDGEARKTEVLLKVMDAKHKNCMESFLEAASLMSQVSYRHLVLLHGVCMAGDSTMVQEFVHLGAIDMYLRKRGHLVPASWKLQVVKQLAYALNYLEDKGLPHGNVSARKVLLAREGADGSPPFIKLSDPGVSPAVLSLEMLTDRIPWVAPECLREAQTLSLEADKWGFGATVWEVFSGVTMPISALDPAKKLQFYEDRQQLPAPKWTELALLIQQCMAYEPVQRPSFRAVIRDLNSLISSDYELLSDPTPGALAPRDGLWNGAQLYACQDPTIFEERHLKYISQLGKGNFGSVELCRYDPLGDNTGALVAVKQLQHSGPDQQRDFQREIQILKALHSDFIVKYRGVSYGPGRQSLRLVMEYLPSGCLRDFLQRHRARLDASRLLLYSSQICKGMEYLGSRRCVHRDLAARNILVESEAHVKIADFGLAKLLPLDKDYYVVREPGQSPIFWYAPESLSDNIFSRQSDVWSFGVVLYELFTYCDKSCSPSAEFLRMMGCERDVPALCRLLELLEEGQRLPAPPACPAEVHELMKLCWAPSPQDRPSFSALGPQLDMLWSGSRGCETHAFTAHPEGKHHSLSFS

[2] = biological target: T2, Serine/threonine-protein kinase BRSK1 (Homo sapiens) (UniProt Q8TDC3); experiment: Selectivity interaction (KinomeScan (DiscoverX)) EUB0001079a BRSK1; conditions: at 1 µM
T2 sequence (whole entry): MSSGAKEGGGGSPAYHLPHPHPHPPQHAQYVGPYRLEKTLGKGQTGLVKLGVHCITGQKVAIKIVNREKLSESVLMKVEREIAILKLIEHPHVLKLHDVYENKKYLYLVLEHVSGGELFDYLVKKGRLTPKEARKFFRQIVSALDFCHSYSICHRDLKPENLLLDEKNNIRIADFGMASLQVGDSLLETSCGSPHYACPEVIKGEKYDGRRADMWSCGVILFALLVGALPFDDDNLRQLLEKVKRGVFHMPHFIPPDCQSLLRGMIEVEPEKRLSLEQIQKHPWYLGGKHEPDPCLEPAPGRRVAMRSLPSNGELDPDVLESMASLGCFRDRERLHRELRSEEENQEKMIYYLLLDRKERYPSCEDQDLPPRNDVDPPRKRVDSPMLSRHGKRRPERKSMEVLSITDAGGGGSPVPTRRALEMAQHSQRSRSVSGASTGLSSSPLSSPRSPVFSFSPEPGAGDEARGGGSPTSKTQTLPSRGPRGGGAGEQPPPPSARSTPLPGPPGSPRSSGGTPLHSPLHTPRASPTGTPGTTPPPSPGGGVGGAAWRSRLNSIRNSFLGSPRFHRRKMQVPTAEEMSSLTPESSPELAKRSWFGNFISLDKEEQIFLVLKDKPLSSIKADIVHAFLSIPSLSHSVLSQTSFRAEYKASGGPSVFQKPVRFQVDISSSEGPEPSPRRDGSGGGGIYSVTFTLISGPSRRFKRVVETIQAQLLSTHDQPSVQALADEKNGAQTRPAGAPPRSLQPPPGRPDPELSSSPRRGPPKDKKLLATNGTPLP

[3] = biological target: T3, Phosphorylase b kinase gamma catalytic chain, liver/testis isoform (Homo sapiens) (UniProt P15735); experiment: Selectivity interaction (KinomeScan (DiscoverX)) EUB0000092b PHKG2; conditions: at 10 µM
T3 sequence (whole entry): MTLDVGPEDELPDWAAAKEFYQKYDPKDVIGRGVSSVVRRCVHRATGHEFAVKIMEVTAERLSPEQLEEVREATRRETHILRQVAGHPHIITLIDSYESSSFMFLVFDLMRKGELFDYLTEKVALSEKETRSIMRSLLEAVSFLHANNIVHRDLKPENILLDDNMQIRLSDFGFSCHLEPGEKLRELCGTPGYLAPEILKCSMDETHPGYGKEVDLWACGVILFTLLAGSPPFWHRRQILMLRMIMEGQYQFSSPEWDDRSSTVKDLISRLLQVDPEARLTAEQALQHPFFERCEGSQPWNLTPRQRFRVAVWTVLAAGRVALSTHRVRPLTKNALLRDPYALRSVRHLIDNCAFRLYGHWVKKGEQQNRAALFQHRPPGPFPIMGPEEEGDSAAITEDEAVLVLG

`C=CC(=O)Nc1cc(-n2c(=O)ccc3cnc4ccc(-c5ccc(NS(C)(=O)=O)cc5)cc4c32)ccc1C` gave a % of control ([1]; at 1 µM) of 6.6% and a % of control ([1]; at 10 µM) of 0.6%.

`Nc1cnc(N2CCc3cc(S(=O)(=O)Nc4c(F)cc(Cl)cc4F)cc(N4CCCC4=O)c32)nc1` [TP-020n] gave a % of control [2] of 100%.

`CCC(=O)N1CCN(c2ccc(-n3c(=O)ccc4cnc5ccc(-c6cnc7ccccc7c6)cc5c43)cc2C(F)(F)F)CC1` was tested, and the % of control [3] was 100%.
